Key:
[1] = system: blastopore upper lip of early gastrula of a Xenopus; assay: Timing of retinoic acid treatment: preculture of blastopore upper lip before one hour treatment; format: cell-based; conditions: 10^−4 M, treated 1 hour, cultured 10 days
Experimental: Regarding the other tissues, an intestinal epithelium was formed aside from notochord and mesenchyme in those precultured for 0 and 5 hours. However, as to those treated with retinoic acid after preculture for more than 15 hours, the formation of intestinal epithelium was suppressed and the differentiation rate of epithelium, coelomic epithelium and pharyngeal epithelium increased.

[2] = system: blastopore upper lip of early gastrula of a Xenopus; assay: Tissue differentiation of blastopore upper lip treated with retinoic acid for three hours, light microscopy; conditions: treated 3 hours, cultured 10 days
[3] = preculture 0 hours, 34 specimens
[4] = preculture 5 hours, 36 specimens
[5] = preculture 15 hours, 40 specimens
[6] = preculture 25 hours, 34 specimens

CC1=C(/C=C/C(C)=C/C=C/C(C)=C/C(=O)O)C(C)(C)CCC1 [Retinoic acid, retinoic acid]
5 (14): Epidermis differentiated, specimens (%) [1, 4]
16 (47): Coelomic epithelium differentiated, specimens (%) [1, 6]
19 (53): Pancreas differentiated, specimens (%) [1, 4]
11 (92): Notochord differentiated, specimens (%) ([2]; 10^−3 M, 12 specimens) | Pancreas differentiated, specimens (%) ([2]; 10^−3 M, 12 specimens) | Yolk-rich cell differentiated, specimens (%) ([2]; 10^−3 M, 12 specimens)
11 (32): Epidermis differentiated, specimens (%) [1, 3]
34 (100): Intestinal epithelium differentiated, specimens (%) [1, 3] | Mesenchyme differentiated, specimens (%) [1, 6] | Pharyngeal epithelium differentiated, specimens (%) [1, 6]
20 (59): Yolk-rich cell differentiated, specimens (%) [1, 6]
12 (100): Intestinal epithelium differentiated, specimens (%) ([2]; 10^−3 M, 12 specimens) | Mesenchyme differentiated, specimens (%) ([2]; 10^−3 M, 12 specimens)
25 (74): Pharyngeal epithelium differentiated, specimens (%) [1, 3]
33 (97): Notochord differentiated, specimens (%) [1, 3] | Notochord differentiated, specimens (%) [1, 6]
27 (75): Pharyngeal epithelium differentiated, specimens (%) [1, 4]
5 (15): Intestinal epithelium differentiated, specimens (%) [1, 6]
23 (68): Mesenchyme differentiated, specimens (%) [1, 3]
30 (83): Mesenchyme differentiated, specimens (%) [1, 4] | Yolk-rich cell differentiated, specimens (%) [1, 4]
40 (95): Mesenchyme differentiated, specimens (%) [1, 5]
13 (33): Epidermis differentiated, specimens (%) [1, 5]
33 (92): Intestinal epithelium differentiated, specimens (%) [1, 4]
1 (3): Muscle differentiated, specimens (%) [1, 3] | Muscle differentiated, specimens (%) [1, 6]
0 (0): Atypical epidermis differentiated, specimens (%) [1, 3] | Cartilage differentiated, specimens (%) [1, 3] | Cement gland differentiated, specimens (%) [1, 3] | Coelomic epithelium differentiated, specimens (%) [1, 3] | Ear vesicle differentiated, specimens (%) [1, 3] | Eye or its fragments differentiated, specimens (%) [1, 3] | Gastric gland differentiated, specimens (%) [1, 3] | Hemocyte differentiated, specimens (%) [1, 3] | Neural tissue differentiated, specimens (%) [1, 3] | Pronephros differentiated, specimens (%) [1, 3] | Atypical epidermis differentiated, specimens (%) [1, 4] | Cartilage differentiated, specimens (%) [1, 4] | Cement gland differentiated, specimens (%) [1, 4] | Coelomic epithelium differentiated, specimens (%) [1, 4] | Ear vesicle differentiated, specimens (%) [1, 4] | Eye or its fragments differentiated, specimens (%) [1, 4] | Gastric gland differentiated, specimens (%) [1, 4] | Hemocyte differentiated, specimens (%) [1, 4] | Muscle differentiated, specimens (%) [1, 4] | Neural tissue differentiated, specimens (%) [1, 4] | Pronephros differentiated, specimens (%) [1, 4] | Atypical epidermis differentiated, specimens (%) [1, 5] | Cartilage differentiated, specimens (%) [1, 5] | Cement gland differentiated, specimens (%) [1, 5] | Ear vesicle differentiated, specimens (%) [1, 5] | Eye or its fragments differentiated, specimens (%) [1, 5] | Hemocyte differentiated, specimens (%) [1, 5] | Muscle differentiated, specimens (%) [1, 5] | Neural tissue differentiated, specimens (%) [1, 5] | Pronephros differentiated, specimens (%) [1, 5] | Atypical epidermis differentiated, specimens (%) [1, 6] | Cartilage differentiated, specimens (%) [1, 6] | Cement gland differentiated, specimens (%) [1, 6] | Ear vesicle differentiated, specimens (%) [1, 6] | Eye or its fragments differentiated, specimens (%) [1, 6] | Gastric gland differentiated, specimens (%) [1, 6] | Hemocyte differentiated, specimens (%) [1, 6] | Neural tissue differentiated, specimens (%) [1, 6] | Pancreas differentiated, specimens (%) [1, 6] | Pronephros differentiated, specimens (%) [1, 6] | Atypical epidermis differentiated, specimens (%) ([2]; 10^−3 M, 12 specimens) | Cartilage differentiated, specimens (%) ([2]; 10^−3 M, 12 specimens) | Cement gland differentiated, specimens (%) ([2]; 10^−3 M, 12 specimens) | Ear vesicle differentiated, specimens (%) ([2]; 10^−3 M, 12 specimens) | Eye or its fragments differentiated, specimens (%) ([2]; 10^−3 M, 12 specimens) | Gastric gland differentiated, specimens (%) ([2]; 10^−3 M, 12 specimens) | Hemocyte differentiated, specimens (%) ([2]; 10^−3 M, 12 specimens) | Muscle differentiated, specimens (%) ([2]; 10^−3 M, 12 specimens) | Neural tissue differentiated, specimens (%) ([2]; 10^−3 M, 12 specimens) | Pronephros differentiated, specimens (%) ([2]; 10^−3 M, 12 specimens) | Atypical epidermis differentiated, specimens (%) ([2]; 10^−4 M, 35 specimens) | Cartilage differentiated, specimens (%) ([2]; 10^−4 M, 35 specimens) | Cement gland differentiated, specimens (%) ([2]; 10^−4 M, 35 specimens)
6 (50): Coelomic epithelium differentiated, specimens (%) ([2]; 10^−3 M, 12 specimens)
32 (94): Yolk-rich cell differentiated, specimens (%) [1, 3]
36 (100): Notochord differentiated, specimens (%) [1, 4]
28 (82): Epidermis differentiated, specimens (%) [1, 6]
10 (83): Epidermis differentiated, specimens (%) ([2]; 10^−3 M, 12 specimens) | Pharyngeal epithelium differentiated, specimens (%) ([2]; 10^−3 M, 12 specimens)
24 (71): Pancreas differentiated, specimens (%) [1, 3]
